Target: CYP126 (Mycobacterium tuberculosis, UniProt P9WPN9)
Experiment: biochemical
Assay type: binding

Sequence of CYP126 (P9WPN9 whole entry): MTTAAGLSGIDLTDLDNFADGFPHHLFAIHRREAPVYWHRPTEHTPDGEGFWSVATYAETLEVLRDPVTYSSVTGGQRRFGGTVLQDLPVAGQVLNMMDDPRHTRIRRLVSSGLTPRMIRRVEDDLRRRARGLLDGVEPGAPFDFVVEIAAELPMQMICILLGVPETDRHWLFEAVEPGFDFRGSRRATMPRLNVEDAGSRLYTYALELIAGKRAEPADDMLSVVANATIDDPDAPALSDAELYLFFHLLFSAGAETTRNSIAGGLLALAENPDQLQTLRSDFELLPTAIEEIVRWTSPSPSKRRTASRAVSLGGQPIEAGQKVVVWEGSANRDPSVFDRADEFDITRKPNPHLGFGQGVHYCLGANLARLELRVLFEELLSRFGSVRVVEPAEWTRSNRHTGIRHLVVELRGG

Oc1c(Cl)c(Cl)c(Cl)c(Cl)c1Cl [TB23, pentachlorophenol]
Kd: 150 µM

— paper PMC4159592 (Chembiochem, 2014)
